Experimental data taken from publication PMC9525273 (Nature Communications, 2022).
“And” between values parts separate entries of the source, which are not always exact repeats. Equal entries are not always repeated. Where two headings read alike, the source gives them in different places.

What was measured:
[1] = test system: extracellular T. gondii tachyzoites expressing TgATP4^WT; assay: [Na+]cyt measurement (SBFI), Na+ dysregulation; format: cell-based, Toxoplasma gondii; design: Final [Na+]cyt reached: unit not given here
Protocol: The ratio of the fluorescence intensity recorded at 340 nm and 380 nm (with an emission wavelength of 515 nm) was converted to [Na^+]cyt using a calibration procedure that entailed suspending parasites in solutions of varying [Na^+] containing ionophores. Fluorescence measurements and calibrations were performed at 37 °C, either with individual 1 mL suspensions using a PerkinElmer LS 50B fluorescence spectrometer (for resting [Na^+]cyt measurements for which the data are shown in Supplementary Fig. 7) or in 96-well plates using a Tecan Infinite M1000 PRO plate reader with i-control (version 1.12) software (all other [Na^+]cyt measurements).

[2] = target: T1, PfATP4^WT (membranes from Dd2-Polδ parasites) (Plasmodium falciparum, UniProt A0A143ZZK9); assay: Membrane ATPase assay, ATP4-associated (Na+-dependent) ATPase activity; format: biochemical; settings: for PfATP4-associated ATPase activity (% of control): Dd2-Polδ
T1 sequence (A0A143ZZK9 1-1264): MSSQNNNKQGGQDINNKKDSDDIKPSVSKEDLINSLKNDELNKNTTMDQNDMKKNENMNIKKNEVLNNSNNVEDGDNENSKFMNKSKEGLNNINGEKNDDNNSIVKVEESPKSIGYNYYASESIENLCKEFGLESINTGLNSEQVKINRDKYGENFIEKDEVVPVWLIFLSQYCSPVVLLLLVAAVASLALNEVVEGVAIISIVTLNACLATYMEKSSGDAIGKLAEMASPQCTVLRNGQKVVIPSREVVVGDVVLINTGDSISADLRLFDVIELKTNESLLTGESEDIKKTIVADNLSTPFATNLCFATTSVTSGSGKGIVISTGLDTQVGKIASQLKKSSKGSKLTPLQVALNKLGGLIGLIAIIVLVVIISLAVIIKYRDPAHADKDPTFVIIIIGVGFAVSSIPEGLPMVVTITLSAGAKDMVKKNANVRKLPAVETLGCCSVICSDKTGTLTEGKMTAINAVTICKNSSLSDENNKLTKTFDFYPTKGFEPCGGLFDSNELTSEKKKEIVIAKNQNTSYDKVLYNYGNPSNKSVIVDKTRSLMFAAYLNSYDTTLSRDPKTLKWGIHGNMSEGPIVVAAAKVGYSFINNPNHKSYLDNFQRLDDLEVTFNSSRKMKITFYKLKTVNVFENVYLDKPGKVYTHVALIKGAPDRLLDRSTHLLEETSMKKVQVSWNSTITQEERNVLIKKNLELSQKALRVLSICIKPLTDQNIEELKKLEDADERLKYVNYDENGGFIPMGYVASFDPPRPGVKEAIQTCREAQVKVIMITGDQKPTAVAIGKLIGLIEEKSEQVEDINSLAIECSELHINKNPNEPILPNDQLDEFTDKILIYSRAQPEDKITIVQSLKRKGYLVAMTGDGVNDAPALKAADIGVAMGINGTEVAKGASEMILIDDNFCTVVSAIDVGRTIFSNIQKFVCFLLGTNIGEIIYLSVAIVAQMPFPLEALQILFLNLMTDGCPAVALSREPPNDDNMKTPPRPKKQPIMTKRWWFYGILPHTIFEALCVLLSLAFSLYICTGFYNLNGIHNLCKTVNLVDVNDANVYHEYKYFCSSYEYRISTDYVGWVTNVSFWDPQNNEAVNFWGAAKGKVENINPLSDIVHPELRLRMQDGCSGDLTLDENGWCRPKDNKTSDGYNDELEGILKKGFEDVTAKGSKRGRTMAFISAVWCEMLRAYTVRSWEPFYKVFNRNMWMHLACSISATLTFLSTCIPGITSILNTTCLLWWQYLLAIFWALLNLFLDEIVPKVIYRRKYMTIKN
Protocol: Membranes from isolated P. falciparum or extracellular T. gondii parasites were prepared by lysing parasites in ice-cold deionized water containing a 1:500 dilution of Protease Inhibitor Cocktail Set III (Merck Millipore), then washing the membrane preparation three times in ice-cold deionized water (with protease inhibitors present for the first two washes)[15]. Protein concentrations in the membrane preparations were measured using a Bradford assay. The PiColorLock Gold Phosphate Detection System (Innova Biosciences) was used to measure the production of Pi from hydrolysis of ATP[15]. Membrane preparations were diluted in either a high Na^+ solution (yielding final conditions in the reactions of 150 mM NaCl, 20 mM KCl, 2 mM MgCl2, 50 mM Tris, pH 7.2) or a Na^+-free solution (yielding final conditions of 150 mM choline chloride, 20 mM KCl, 2 mM MgCl2, 50 mM Tris, pH 7.2) to achieve a total protein concentration of 50 μg/mL. […] The reactions were performed at 37 °C, and were initiated by the addition of 1 mM ATP (Na2ATP۰3H2O; MP Biomedicals) and terminated 10 min later by adding 100 μL of reaction mixture (in duplicate) to 25 μL “Gold mix” in a 96-well plate. “Stabiliser” was added 3 min later, and the plates incubated at room temperature in the dark for 60 min before measuring absorbance at 635 nm. Background values (averaged from wells containing all components, but to which ATP was not added until after the membrane was exposed to Gold mix) were subtracted from the data. For each treatment, the ATPase activity associated with the (Na^+-dependent) PfATP4 and TgATP4 proteins was calculated by subtracting data obtained in the low Na^+ condition (containing only the 2 mM Na^+ introduced on addition of 1 mM Na2ATP) from that obtained in the high Na^+ condition.

Work on N#Cc1cc(NC(=O)[C@H]2c3ccccc3C(=O)N(CC(F)(F)F)[C@@H]2c2cccnc2)ccc1F [(+)-SJ733] yielded an IC50 ([1]; Toxoplasma gondii, 1.5 h, pH 7.1, WT T. gondii (TgATP4WT), ~90 min exposure, 37 °C, pH 7.1, mean ± SEM, read-out: IC50 for Na+ dysregulation) of 5040 ± 572 nM, an IC50 ([1]; Toxoplasma gondii, WT T. gondii, MEAN, source data of Table 1 (nM there), read-out: IC50 for Na+ dysregulation, MEAN) of 5040 nM and an IC50 ([1]; Toxoplasma gondii, WT T. gondii, single experiments, source data of Table 1 (nM there), read-out: IC50 for Na+ dysregulation) of 4900 nM. For the same molecule, the “Final [Na+]cyt reached” value ([1]; WT T. gondii, [(+)-SJ733] 19.5 nM, MEAN) was 11.8, the “Final [Na+]cyt reached” value ([1]; WT T. gondii, [(+)-SJ733] 39.1 nM, MEAN) was 11.7 and the “Final [Na+]cyt reached” value ([1]; WT T. gondii, [(+)-SJ733] 78.1 nM, MEAN) was 12.4. For the same molecule, the “Final [Na+]cyt reached” value ([1]; WT T. gondii, [(+)-SJ733] 156.3 nM, MEAN) was 13.8, the “Final [Na+]cyt reached” value ([1]; WT T. gondii, [(+)-SJ733] 312.5 nM, MEAN) was 15.1 and the “Final [Na+]cyt reached” value ([1]; WT T. gondii, [(+)-SJ733] 625 nM, MEAN) was 18.3. The “Final [Na+]cyt reached” value ([1]; WT T. gondii, [(+)-SJ733] 2500 nM, MEAN) was 32.1, the “Final [Na+]cyt reached” value ([1]; WT T. gondii, [(+)-SJ733] 2500 nM, single experiments) was 21.7 and 37.9 and 34.1 and 34.6 and the “Final [Na+]cyt reached” value ([1]; WT T. gondii, [(+)-SJ733] 5000 nM, MEAN) was 48.9. For the same molecule, the “Final [Na+]cyt reached” value ([1]; WT T. gondii, [(+)-SJ733] 5000 nM, single experiments) was 41.9 and 51.4 and 51.0, the “Final [Na+]cyt reached” value ([1]; WT T. gondii, [(+)-SJ733] 10000 nM, MEAN) was 65.1 and the “Final [Na+]cyt reached” value ([1]; WT T. gondii, [(+)-SJ733] 10000 nM, single experiments) was 65.8 and 64.6 and 71.3 and 58.7. For the same molecule, the “Final [Na+]cyt reached” value ([1]; WT T. gondii, [(+)-SJ733] 20000 nM, MEAN) was 76.4, the “Final [Na+]cyt reached” value ([1]; WT T. gondii, [(+)-SJ733] 20000 nM, single experiments) was 74.3 and 76.4 and 85.9 and 69.1 and the “Final [Na+]cyt reached” value ([1]; WT T. gondii, [(+)-SJ733] 40000 nM, MEAN) was 81.2. The “Final [Na+]cyt reached” value ([1]; WT T. gondii, [(+)-SJ733] 40000 nM, single experiments) was 81.0 and 95.3 and 67.2, the IC50 ([1]; WT T. gondii, single experiments, source data of Table 1 (nM there), read-out: IC50 for Na+ dysregulation) was 4780 nM and 6620 nM and 3880 nM and the “IC50 for inhibition of ATP4-associated ATPase activity, MEAN” value ([2]; Dd2-Polδ membranes, MEAN, source data of Table 1 (nM there)) was 5.23. For the same molecule, the “IC50 for ATP4-associated ATPase activity” value ([2]; membranes from Dd2-Polδ, mean ± SEM) was 5.2 ± 2.3 (3) nM.
With N#Cc1cc(NC(=O)[C@H]2c3ccccc3C(=O)N(CC(F)(F)F)[C@@H]2c2cccnc2)ccc1F [(+)SJ733] the “PfATP4-associated ATPase activity (% of control)” value ([2]; [(+)SJ733] 0.122 nM, MEAN) was 74.2 % of control, the “PfATP4-associated ATPase activity (% of control)” value ([2]; [(+)SJ733] 0.122 nM, single experiments, 0.000122 µM) was 57.4 % of control and 86.4 % of control and 78.7 % of control and the “PfATP4-associated ATPase activity (% of control)” value ([2]; [(+)SJ733] 0.244 nM, MEAN) was 71.3 % of control. For the same molecule, the “PfATP4-associated ATPase activity (% of control)” value ([2]; [(+)SJ733] 0.244 nM, single experiments, 0.000244 µM) was 51.9 % of control and 74.9 % of control and 87.1 % of control, the “PfATP4-associated ATPase activity (% of control)” value ([2]; [(+)SJ733] 0.5 nM, MEAN) was 85.1 % of control and the “PfATP4-associated ATPase activity (% of control)” value ([2]; [(+)SJ733] 1.0 nM, MEAN) was 59.1 % of control. For the same molecule, the “PfATP4-associated ATPase activity (% of control)” value ([2]; [(+)SJ733] 2.0 nM, MEAN) was 64.2 % of control, the “PfATP4-associated ATPase activity (% of control)” value ([2]; [(+)SJ733] 3.9 nM, MEAN) was 46.7 % of control and the “PfATP4-associated ATPase activity (% of control)” value ([2]; [(+)SJ733] 7.8 nM, MEAN) was 32.8 % of control. The “PfATP4-associated ATPase activity (% of control)” value ([2]; [(+)SJ733] 15.6 nM, MEAN) was 21.9 % of control, the “PfATP4-associated ATPase activity (% of control)” value ([2]; [(+)SJ733] 31.3 nM, MEAN) was 30.9 % of control and the “PfATP4-associated ATPase activity (% of control)” value ([2]; [(+)SJ733] 62.5 nM, MEAN) was 7.7 % of control. For the same molecule, the “PfATP4-associated ATPase activity (% of control)” value ([2]; [(+)SJ733] 250 nM, MEAN) was 11.2 % of control, the “PfATP4-associated ATPase activity (% of control)” value ([2]; [(+)SJ733] 500 nM, MEAN) was -2.6 % of control and the “PfATP4-associated ATPase activity (% of control)” value ([2]; [(+)SJ733] 1000 nM, MEAN) was -8.2 % of control. The “PfATP4-associated ATPase activity (% of control)” value ([2]; [(+)SJ733] 2000 nM, MEAN) was 7.9 % of control, the “PfATP4-associated ATPase activity (% of control)” value ([2]; [(+)SJ733] 4000 nM, MEAN) was -17.1 % of control and the “PfATP4-associated ATPase activity (% of control)” value ([2]; [(+)SJ733] 8000 nM, MEAN) was -14.6 % of control.
